Measurements from PMC9563435, “Comparison of Different Clinical Chemotherapeutical Agents’ Toxicity and Cell Response on Mesenchymal Stem Cells and Cancer Cells” (Cells, 2022).
Entries after “also recorded” stand apart in the source; their conditions may differ. Counter-ions that a name gives are not always drawn.

Tests used:
Ad-MSC 3 cells [1] = experiment: Apoptosis assay (Annexin V / TO-PRO-3 flow cytometry), Ad-MSC 3; assay type: cell-based, human; conditions: for apoptosis induction in MSCs (in words): several concentrations, data not shown; for type of cell death in MSCs (in words): high concentrations: doxorubicin 1 µM, nutlin-3 50 µM
Protocol: Apoptosis detection was based on the Annexin-V molecule binding to phosphatidylserine membrane molecules. Two cell lines were used to study apoptosis: Ad-MSC 3 cells were plated in a 5 × 10^4 cells/well concentration, while 4 × 10^4/well A431-mCh were seeded into each well in a 12-well tissue culture plate. […] At day 5, cells were trypsinized and centrifuged, while the supernatant was also collected and combined with the detached cells to include all already dead cells. Cells were washed twice with 500 µL of 1% BSA-PBS (bovine serum albumin dissolved in PBS, A8022, Sigma-Aldrich, St. Louis, MO, USA) solution and centrifuged at 400× G for 4 min. Cells were resuspended in 100 µL of 1× Annexin Binding Buffer (422201, Biolegend, San Diego, CA, USA), and 3 µL of Annexin V-Pacific Blue (A35122, Biolegend, San Diego, CA, USA) and 1 µL of TO-PRO-3 (R37170, Invitrogen, Waltham, MA, USA) were added to each sample. After 15 min of incubation, labeled and non-labeled samples were diluted 5-fold with 1× Annexin Binding Buffer and analyzed by Attune™ NxT flow cytometer.

[2] = tested on: 6 MSCs and 3 cancer cell lines; experiment: Cytotoxicity / cell viability assay (PrestoBlue), panel of MSCs and cancer cell lines; assay type: cell-based, human; conditions: for drug sensitivity of MSCs compared with cancer cells (in words): IC50 comparison
Protocol: (§1) Cells were seeded in a 96-well tissue culture plate in 100 µL of medium. Ad-MSC-GFP 1, iAd-MSC-GFP 1, Ad-MSC-GFP 2, Ad-MSC-GFP 3, BM-MSC, and HFF were seeded at 5 × 10^3/100 µL/well density and A431-mCh, MES-SA-mCh, and MCF-7-GFP at 4 × 10^3 cells/100 µL/well concentration in DMEM-F12 media. Different initial cell numbers were used due to different proliferation rates of different cell types. Cells were allowed to attach overnight at 37 °C and the day after were treated with the drugs using the indicated concentrations in 100 µL. Cell viability was measured by using PrestoBlue™ Cell Viability Reagent (A13232, Invitrogen, Waltham, MA, USA). To address metabolic differences between cancer cells and MSCs, the assay was optimized for each cell line, cells were incubated with 5 or 12.5% PrestoBlue™ Cell Viability Reagent diluted in PBS at 37 °C/5% CO2 for 1–1.5 h 5 days after the treatment. The fluorescence signal was measured by an EnSpire (Perkin Elmer, Waltham, MA, USA) fluorometer at 555 nm (excitation)/585 nm (emission) wavelength.
After the incubation period, the relative fluorescence data was measured. The data was normalized with the fluorescence of blank samples (cell culture media). A sigmoidal dose–response curve was fitted to the normalized measurement data and the logarithm of the concentration using the least square method. An inhibitory concentration of 50% (IC50 and log10) was interpolated from the fitted graph. […] In these cases, IC50 was calculated from the line connecting the measurement points. For repeated measurements, average and standard deviation was calculated based on the logarithm of the IC50 values.
To compare the mean IC50 values of six mesenchymal stem cell lines (Group-1) and three cancer cell lines (Group-2), first an F-test was performed to check equal variances between the groups, then two-sample unpaired t-tests were performed to calculate significance using Microsoft® Excel® 2016 (16.0.4266.1001).

Ad-MSC 3 cells [3] = experiment: Cell proliferation (CytoTell) and light microscopy after treatment, Ad-MSC 3; assay type: cell-based, human; conditions: 0.1 µM
Protocol: (§2) Cell division was analyzed by the fluorescent CytoTell Green dye (AAT Bioquest, Sunnyvale, CA, USA) according to the manufacturer’s guidelines. Briefly, 3 × 10^5 cells were centrifuged and stained with 2 µL of CytoTell dye diluted in 1 mL of serum-free DMEM and incubated at 37 °C for 30 min. After centrifugation, half of the cells (1.5 × 10^5) were plated into T25 cell culture flasks in 5 mL of media and analyzed at day 5. Day 1 samples were co-stained with Zombie Violet dye (423113, Biolegend) to exclude dead cells and analyzed by Attune™ NxT flow cytometry. Brightfield images were taken with the Olympus IX51 microscope. The scale bar is the same in every image.

Ad-MSC-GFP 3 cells [4] = experiment: Cytotoxicity / cell viability assay (PrestoBlue) on Ad-MSC-GFP 3; assay type: cell-based, human; conditions: Homo sapiens, 120 h; Ad-MSC-GFP 3 / Ad-MSC 3, 5 days
Protocol: as §1
(§3) After the incubation period, the relative fluorescence data was measured. The data was normalized with the fluorescence of blank samples (cell culture media). […] In these cases, IC50 was calculated from the line connecting the measurement points. For repeated measurements, average and standard deviation was calculated based on the logarithm of the IC50 values.

A431-mCh cells [5] = experiment: Cytotoxicity / cell viability assay (PrestoBlue) on A431; assay type: cell-based, human
Protocol: as §1, §3

Ad-MSC-GFP 3 cells [6] = experiment: γ-H2AX staining of DNA double-stranded breaks, Ad-MSC-GFP 3; assay type: cell-based, human; conditions: 120 h; IC50 concentrations of A431 (2 µM cisplatin, 0.1 µM doxorubicin, 30 µM nutlin-3)
Protocol: (§4) Ad-MSC-GFP 3 cells were seeded into glass-bottomed chamber slides (ibidi, Germany, Grafelfing, Germany) at 1 × 10^4/well and A431-mCh at 1.6 × 10^4/well density. […] Cells in all chambers were fixed with 4% PFA for 15 min and washed twice with PBS. Blocking solution (0.5% BSA-PBS, 0.1% TritonX-100, 5% goat serum, and 1% fish gelatin) was used for 1 h. γ-H2A.X primary antibody (MA1-2022, Invitrogen, United States) was diluted in blocking solution at 1:500 concentration and incubated overnight at 4 °C. Afterwards, the cells were washed with PBS twice and goat anti-mouse A633 secondary antibody (A21052, abcam, Cambridge, UK) was diluted at 1:250 concentration in blocking solution. Nuclei was stained with a Hoechst-33342 (23491-52-3, Dojindo, Kumamoto, Japan) at 1:1000 concentration.
(§5) To quantify DNA damage based on immunofluorescence against γ-H2AX, a semi-automated image analysis pipeline was set up using CellProfiler v4.1.3 [10]. First, images showing DAPI-stained nuclei were pre-processed by intensity normalization and Gaussian filtering (ϭ = 20 px) to suppress noise and remove artifacts caused by debris. Nuclei candidates were identified by threshold-based segmentation; false candidates were removed from the analysis manually. Using the remaining nuclei regions as masks, pixel intensities were measured on the γ-H2AX channel, thus, excluding non-nuclei signals.

Ad-MSC 3 cells [7] = experiment: ROS induction (DCFH-DA), Ad-MSC 3; assay type: cell-based, human; conditions: 1 h
Protocol: (§6) Ad-MSC 3 and A431 cells were seeded in a 96-well tissue culture plate and incubated for 24 h as described above. Cells were washed twice with HBSS and incubated in 100 µL of DCFH-DA dye (R252-10, Dojindo) according to the manufacturer’s instructions. Cells were incubated for 30 min at 37 °C and washed twice with HBSS. […] Supernatant was removed, and the cells were washed with HBSS before imaging with the JuLI^TM Stage Cell History Recorder (NanoEnTek).

A431-mCh cells [8] = experiment: Live cell imaging, confluency, A431-mCh; assay type: cell-based, human; conditions: 120 h
Protocol: (§7) JuLI™ Stage Cell History Recorder was used to monitor a five-day cytotoxicity assay on Ad-MSC-GFP 3 and A431-mCh cell lines. […] Images were taken every 105 min for 120 h at 10× objective magnification. Live cell microscopy studies were evaluated using the “Growth curve” function of the JuLI STAT image analysis software (v2.0.1.0).

A431 cells [9] = experiment: Apoptosis assay (Annexin V / TO-PRO-3 flow cytometry), A431; conditions: 120 h
A431 cells [10] = experiment: ROS induction (DCFH-DA), A431; assay type: cell-based, human; conditions: 1 h
Protocol: as §6

A431-mCh cells [11] = experiment: γ-H2AX staining of DNA double-stranded breaks, A431-mCh; assay type: cell-based, human; conditions: 120 h; IC50 concentrations of A431 (2 µM cisplatin, 0.1 µM doxorubicin, 30 µM nutlin-3)
Protocol: as §4, §5

Ad-MSC-GFP 3 cells [12] = experiment: Live cell imaging, confluency, Ad-MSC-GFP 3; assay type: cell-based, human
Protocol: as §7

A431 cells [13] = experiment: Cell proliferation (CytoTell) and light microscopy after treatment, A431; assay type: cell-based, human; conditions: 0.1 µM
Protocol: as §2

[14] = different concentrations incl. higher

## OO [H2O2]
Ad-MSC 3 cells [1]
  apoptosis induction in MSCs (in words): not able to induce apoptosis

## c1ccc(CN(CCN(Cc2ccccn2)Cc2ccccn2)Cc2ccccn2)nc1 [TPEN]
[2]; 5 days treatment
  drug sensitivity of MSCs compared with cancer cells (in words): equally toxic to both MSCs and cancer cells

## [Cl][Co][Cl] [cobalt chloride]
Ad-MSC 3 cells [1]
  apoptosis induction in MSCs (in words): not able to induce apoptosis

## COc1cccc2c1C(=O)c1c(O)c3c(c(O)c1C2=O)C[C@@](O)(C(=O)CO)C[C@@H]3O[C@H]1C[C@H](N)[C@H](O)[C@H](C)O1 [doxorubicin, doxorubicin hydrochloride]
Ad-MSC 3 cells [1]; 0.1 µM, 120 h
  apoptosis (in words): apoptosis was not detected
Ad-MSC 3 cells [1]; concentration increased 10-fold (1 µM), 120 h
  apoptosis / cell death (in words): only late necrosis was found
Ad-MSC 3 cells [1]
  type of cell death in MSCs (in words): necrotic cell death
Ad-MSC 3 cells [3]
  cell number (light microscopy): reduced cell number
Ad-MSC 3 cells [3]; five-day treatment
  proliferation (CytoTell): decreased proliferation
Ad-MSC-GFP 3 cells [4]
  IC50: 0.1 µM
A431-mCh cells [5]; Homo sapiens, A-431, 120 h, A431, 5 days
  IC50: 0.1 µM
Ad-MSC-GFP 3 cells [6]
  DNA double-stranded breaks (γ-H2AX): no DNA break was detected
Ad-MSC 3 cells [7]; [14]
  ROS induction: did not induce ROS
A431-mCh cells [8]; IC50 of A431-mCh and 10-fold higher concentration
  number of viable colonies in live cell imaging: significantly reduced the number of viable colonies
A431-mCh cells [8]; concentration 10-fold lower than A431-mCh IC50
  growth kinetics in live cell imaging: did not alter growth kinetics
A431 cells [9]; 0.1 µM
  apoptosis (in words): apoptosis in almost all A431 cells
A431 cells [10]; [14]
  ROS induction: did not induce ROS
A431-mCh cells [11]
  DNA damage (γ-H2AX): massive DNA damage
Ad-MSC-GFP 3 cells [12]; 120 h of treatment
  decrease of cultures in live cell imaging: no significant decrease
[2]; 5 days treatment
  drug sensitivity of MSCs compared with cancer cells (in words): equally toxic to MSCs and cancer cells
A431 cells [13]
  cell killing (light microscopy): killed most of the cancer cells
A431 cells [13]; five-day treatment
  proliferation (CytoTell): decreased proliferation

## CCc1c2c(nc3ccc(OC(=O)N4CCC(N5CCCCC5)CC4)cc13)-c1cc3c(c(=O)n1C2)COC(=O)[C@]3(O)CC [irinotecan, irinotecan hydrochloride]
[2]; 5 days treatment
  drug sensitivity of MSCs compared with cancer cells (in words): required significantly higher concentrations to kill MSCs than cancer cells

## CN(Cc1cnc2nc(N)nc(N)c2n1)c1ccc(C(=O)N[C@@H](CCC(=O)O)C(=O)O)cc1 [methotrexate]
A431-mCh cells [5]; compared with the other cell lines
  sensitivity of A431 cells (in words): extreme sensitivity; also recorded: hypersensitive
[2]; 5 days treatment
  drug sensitivity of MSCs compared with cancer cells (in words): only toxic to A431-mCherry cells

## O=C1c2c(O)ccc(O)c2C(=O)c2c(NCCNCCO)ccc(NCCNCCO)c21 [mitoxantrone]
Ad-MSC 3 cells [1]
  apoptosis induction in MSCs (in words): not able to induce apoptosis
[2]; 5 days treatment
  drug sensitivity of MSCs compared with cancer cells (in words): required significantly higher concentrations to kill MSCs than cancer cells

## COc1ccc(C2=N[C@@H](c3ccc(Cl)cc3)[C@@H](c3ccc(Cl)cc3)N2C(=O)N2CCNC(=O)C2)c(OC(C)C)c1 [nutlin-3]
Ad-MSC 3 cells [1]; 30 µM, 120 h
  apoptosis (in words): only a slight increase in the number of apoptotic MSCs
Ad-MSC 3 cells [1]
  type of cell death in MSCs (in words): necrotic cell death
Ad-MSC-GFP 3 cells [6]
  DNA double-stranded breaks (γ-H2AX): no DNA break was detected
Ad-MSC 3 cells [7]; 30 µM
  ROS induction: considerable amount of ROS
A431-mCh cells [8]; either concentration, p53 mutant
  effect on cultures in live cell imaging: no effect
A431 cells [9]; 30 µM
  apoptosis (in words): modest apoptotic response
A431 cells [10]; 30 µM
  ROS induction: considerable amount of ROS
A431-mCh cells [11]
  DNA damage (γ-H2AX): massive DNA damage
Ad-MSC-GFP 3 cells [12]; 120 h live cell imaging
  concentration at which significant drops in confluency were seen, as multiple of Ad-MSC-GFP 3 IC50: 3 fold

## CN[C@@H]1C[C@H]2O[C@@](C)([C@@H]1OC)n1c3ccccc3c3c4c(c5c6ccccc6n2c5c31)C(=O)NC4 [staurosporine]
Ad-MSC 3 cells [1]
  apoptosis induction in MSCs (in words): not able to induce apoptosis

## Cn1nnc2c(C(N)=O)ncn2c1=O [temozolomide]
[2]; Homo sapiens, all cell lines of the screening, read-out: toxic concentration in the IC50 screening (not toxic even at)
  IC50: > 1000 µM

## CC[C@]1(O)C[C@@H]2CN(CCc3c([nH]c4ccccc34)[C@@](C(=O)OC)(c3cc4c(cc3OC)N(C)[C@H]3[C@@](O)(C(=O)OC)[C@H](OC(C)=O)[C@]5(CC)C=CCN6CC[C@]43[C@@H]65)C2)C1 [vinblastine]
[2]; 5 days treatment
  drug sensitivity of MSCs compared with cancer cells (in words): required significantly higher concentrations to kill MSCs than cancer cells
[2]; 5 days treatment, MSCs higher than cancer cells
  IC50 values in MSCs relative to cancer cells: 1000 fold
